Results: ChEMBL document CHEMBL1629456, “ApoA-I mimetic peptides promote pre-β HDL formation in vivo causing remodeling of HDL and triglyceride accumulation at higher dose” (Bioorg Med Chem, 2010)
Where a SMILES comes first, the peptide text is derived from it. [ ]: non-standard residue; d: D form. Ala(5-hexenyl) = C=CCCCCC[C@H](N)C(=O)O

biological target: Phospholipid-transporting ATPase ABCA1 (Mus musculus, UniProt P41233); test: Induction of ABCA1-mediated [3H]cholesterol efflux in mouse RAW 264.7 macrophages after 24 hrs
Sequence (P41233 whole entry): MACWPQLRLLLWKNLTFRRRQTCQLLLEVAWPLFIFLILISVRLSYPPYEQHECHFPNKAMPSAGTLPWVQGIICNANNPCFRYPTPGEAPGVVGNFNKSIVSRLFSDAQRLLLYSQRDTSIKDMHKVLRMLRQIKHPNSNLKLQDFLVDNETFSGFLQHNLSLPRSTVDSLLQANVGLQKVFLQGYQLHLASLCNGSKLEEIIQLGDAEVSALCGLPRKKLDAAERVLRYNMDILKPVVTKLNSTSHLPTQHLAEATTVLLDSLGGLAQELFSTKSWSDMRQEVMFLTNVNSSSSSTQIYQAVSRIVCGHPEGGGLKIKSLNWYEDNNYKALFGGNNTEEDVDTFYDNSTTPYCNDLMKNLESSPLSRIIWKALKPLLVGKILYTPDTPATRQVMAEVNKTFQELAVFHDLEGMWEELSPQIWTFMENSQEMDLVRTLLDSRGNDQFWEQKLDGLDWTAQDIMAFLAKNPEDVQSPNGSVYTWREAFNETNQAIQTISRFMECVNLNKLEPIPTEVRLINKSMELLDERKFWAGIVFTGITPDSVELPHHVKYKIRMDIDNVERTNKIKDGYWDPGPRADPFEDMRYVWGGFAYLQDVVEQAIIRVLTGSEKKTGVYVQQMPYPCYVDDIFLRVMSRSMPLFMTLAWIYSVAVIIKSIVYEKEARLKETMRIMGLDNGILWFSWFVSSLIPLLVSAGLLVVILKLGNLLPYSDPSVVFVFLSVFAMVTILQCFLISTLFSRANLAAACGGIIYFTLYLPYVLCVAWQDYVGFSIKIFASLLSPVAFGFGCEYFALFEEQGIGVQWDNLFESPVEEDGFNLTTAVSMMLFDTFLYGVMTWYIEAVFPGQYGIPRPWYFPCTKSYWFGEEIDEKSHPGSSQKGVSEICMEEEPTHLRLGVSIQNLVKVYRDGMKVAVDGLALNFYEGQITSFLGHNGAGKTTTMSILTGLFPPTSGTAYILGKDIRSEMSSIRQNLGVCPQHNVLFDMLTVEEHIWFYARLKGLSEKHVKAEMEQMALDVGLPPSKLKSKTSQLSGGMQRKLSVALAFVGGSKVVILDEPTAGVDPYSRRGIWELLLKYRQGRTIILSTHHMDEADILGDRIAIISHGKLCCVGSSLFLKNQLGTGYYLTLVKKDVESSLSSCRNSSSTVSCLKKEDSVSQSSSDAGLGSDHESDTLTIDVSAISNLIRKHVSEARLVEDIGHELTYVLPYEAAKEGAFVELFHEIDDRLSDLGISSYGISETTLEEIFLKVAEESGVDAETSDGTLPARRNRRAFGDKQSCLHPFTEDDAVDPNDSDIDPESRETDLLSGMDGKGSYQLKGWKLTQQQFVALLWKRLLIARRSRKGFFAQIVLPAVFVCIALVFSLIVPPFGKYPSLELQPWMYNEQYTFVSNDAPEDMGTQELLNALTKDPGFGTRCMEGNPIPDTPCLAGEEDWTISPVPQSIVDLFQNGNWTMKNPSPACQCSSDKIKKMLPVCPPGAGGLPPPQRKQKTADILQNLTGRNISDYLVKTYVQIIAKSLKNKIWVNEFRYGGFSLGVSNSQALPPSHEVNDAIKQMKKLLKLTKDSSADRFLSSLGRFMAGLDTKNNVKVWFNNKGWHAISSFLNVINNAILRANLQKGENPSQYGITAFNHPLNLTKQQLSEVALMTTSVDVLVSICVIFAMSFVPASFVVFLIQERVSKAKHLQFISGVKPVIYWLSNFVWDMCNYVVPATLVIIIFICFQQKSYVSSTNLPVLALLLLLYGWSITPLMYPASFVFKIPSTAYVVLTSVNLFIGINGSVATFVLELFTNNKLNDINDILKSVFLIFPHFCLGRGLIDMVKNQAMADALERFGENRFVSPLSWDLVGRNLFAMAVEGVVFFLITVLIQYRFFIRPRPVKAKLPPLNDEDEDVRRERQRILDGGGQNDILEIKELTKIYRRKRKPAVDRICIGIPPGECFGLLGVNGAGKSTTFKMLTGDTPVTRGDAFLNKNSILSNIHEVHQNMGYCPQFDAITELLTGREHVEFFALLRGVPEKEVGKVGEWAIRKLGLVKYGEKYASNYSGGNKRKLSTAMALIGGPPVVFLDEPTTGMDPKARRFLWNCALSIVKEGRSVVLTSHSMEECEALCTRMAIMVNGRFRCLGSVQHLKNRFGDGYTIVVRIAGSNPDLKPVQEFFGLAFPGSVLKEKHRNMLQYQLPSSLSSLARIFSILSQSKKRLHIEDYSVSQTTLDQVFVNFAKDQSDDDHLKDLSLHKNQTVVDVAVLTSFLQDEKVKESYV

Compound	EC50 [µM]
C=CCCCCC[C@@H](NC(=O)[C@H](C)NC(=O)[C@H](CCC(=O)O)NC(=O)[C@H](CC(C)C)NC(=O)[C@H](CCC(=O)O)NC(=O)[C@H](CCC(=O)O)NC(=O)[C@H](CC(N)=O)NC(=O)[C@H](CC(C)C)NC(=O)[C@H](CCCCN)NC(=O)[C@H](CCC(=O)O)NC(=O)[C@H](CCCN=C(N)N)NC(=O)[C@H](Cc1ccccc1)NC(=O)[C@H](CCC(=O)O)NC(=O)[C@H](CC(=O)O)NC(=O)[C@H](CC(C)C)NC(=O)[C@@H](NC(=O)[C@@H]1CCCN1C(C)=O)C(C)C)C(=O)N[C@@H](CCCCN)C(=O)N[C@@H](CCC(N)=O)C(=O)N[C@@H](CCCCN)C(=O)N[C@@H](CC(C)C)C(=O)N[C@@H](CCCCN)C(N)=O	> 100
C=CCCCC[C@H](NC(=O)[C@H](CCCCN)NC(=O)[C@H](CCC(N)=O)NC(=O)[C@H](CCCCN)NC(=O)[C@H](CC(C)C)NC(=O)[C@H](C)NC(=O)[C@H](CCC(=O)O)NC(=O)[C@H](CC(C)C)NC(=O)[C@H](CCC(=O)O)NC(=O)[C@H](CCC(=O)O)NC(=O)[C@H](CC(N)=O)NC(=O)[C@H](CC(C)C)NC(=O)[C@H](CCCCN)NC(=O)[C@H](CCC(=O)O)NC(=O)[C@H](CCCNC(=N)N)NC(=O)[C@H](Cc1ccccc1)NC(=O)[C@H](CCC(=O)O)NC(=O)[C@H](CC(=O)O)NC(=O)[C@H](CC(C)C)NC(=O)[C@@H](NC(=O)[C@@H]1CCCN1C(C)=O)C(C)C)C(=O)N[C@@H](CCCCN)C(N)=O	> 100
C=CCCCC[C@H](NC(=O)[C@H](CCC(=O)O)NC(=O)[C@H](CCC(=O)O)NC(=O)[C@H](CC(N)=O)NC(=O)[C@H](CC(C)C)NC(=O)[C@H](CCCCN)NC(=O)[C@H](CCC(=O)O)NC(=O)[C@H](CCCNC(=N)N)NC(=O)[C@H](Cc1ccccc1)NC(=O)[C@H](CCC(=O)O)NC(=O)[C@H](CC(=O)O)NC(=O)[C@H](CC(C)C)NC(=O)[C@@H](NC(=O)[C@@H]1CCCN1C(C)=O)C(C)C)C(=O)N[C@@H](CCC(=O)O)C(=O)N[C@@H](C)C(=O)N[C@@H](CC(C)C)C(=O)N[C@@H](CCCCN)C(=O)N[C@@H](CCC(N)=O)C(=O)N[C@@H](CCCCN)C(=O)N[C@@H](CC(C)C)C(=O)N[C@@H](CCCCN)C(N)=O	> 100
C=CCCCC[C@H](NC(=O)[C@@H]1CCCN1C(C)=O)C(=O)N[C@@H](CC(C)C)C(=O)N[C@@H](CC(=O)O)C(=O)N[C@@H](CCC(=O)O)C(=O)N[C@@H](Cc1ccccc1)C(=O)N[C@@H](CCCN=C(N)N)C(=O)N[C@@H](CCC(=O)O)C(=O)N[C@@H](CCCCN)C(=O)N[C@@H](CC(C)C)C(=O)N[C@@H](CC(N)=O)C(=O)N[C@@H](CCC(=O)O)C(=O)N[C@@H](CCC(=O)O)C(=O)N[C@@H](CC(C)C)C(=O)N[C@@H](CCC(=O)O)C(=O)N[C@@H](C)C(=O)N[C@@H](CC(C)C)C(=O)N[C@@H](CCCCN)C(=O)N[C@@H](CCC(N)=O)C(=O)N[C@@H](CCCCN)C(=O)N[C@@H](CC(C)C)C(=O)N[C@@H](CCCCN)C(N)=O	> 100
C=CCCCCC[C@H](NC(=O)[C@H](CCC(N)=O)NC(=O)[C@H](CCCCN)NC(=O)[C@H](CC(C)C)NC(=O)[C@H](C)NC(=O)[C@H](CCC(=O)O)NC(=O)[C@H](CC(C)C)NC(=O)[C@H](CCCCCC=C)NC(=O)[C@H](CCC(=O)O)NC(=O)[C@H](CC(N)=O)NC(=O)[C@H](CC(C)C)NC(=O)[C@H](CCCCN)NC(=O)[C@H](CCC(=O)O)NC(=O)[C@H](CCCNC(=N)N)NC(=O)[C@H](CCCCCC=C)NC(=O)[C@H](CCC(=O)O)NC(=O)[C@H](CC(=O)O)NC(=O)[C@H](CC(C)C)NC(=O)[C@H](CCCCCC=C)NC(=O)[C@@H]1CCCN1C(C)=O)C(=O)N[C@@H](CC(C)C)C(=O)N[C@@H](CCCCN)C(N)=O (Ac-P[Ala(5-hexenyl)]LDE[Ala(5-hexenyl)]REKLNE[Ala(5-hexenyl)]LEALKQ[Ala(5-hexenyl)]LK-NH2)	6.7
